Among the data in patent US20050137807A1, “Method of visualization of the ADME properties of chemical substances” (priority 2003, published 2005) are LogHSA and LogMA values, retold here.

Read-outs that look alike come from different tables or passages of the source.

One data set addresses human serum albumin (Homo sapiens, UniProt P02768). Kind of data set: binding constant to human serum albumin (TRANSIL technology). The source says: The effective molecular weight (MW) is obtained simply from the respective empirical formula of the substance. The waters solubilities and the typical administered dosages of these commercially available products are furthermore known from the literature.
The ADME maps in FIGS. 5 to 10 show by way of example a selection of commercially available pharmaceutical substances. The substance names and the associated experimental measurement values for their physicochemical properties are summarised in Table 1.

A short description of data set [1]: membrane affinity as a measure of the lipophilicity (TRANSIL technology). In kind it is physicochemical.
[2] abbreviates: log binding constant to human serum albumin, TRANSIL.

Chain of human serum albumin (P02768 25-609): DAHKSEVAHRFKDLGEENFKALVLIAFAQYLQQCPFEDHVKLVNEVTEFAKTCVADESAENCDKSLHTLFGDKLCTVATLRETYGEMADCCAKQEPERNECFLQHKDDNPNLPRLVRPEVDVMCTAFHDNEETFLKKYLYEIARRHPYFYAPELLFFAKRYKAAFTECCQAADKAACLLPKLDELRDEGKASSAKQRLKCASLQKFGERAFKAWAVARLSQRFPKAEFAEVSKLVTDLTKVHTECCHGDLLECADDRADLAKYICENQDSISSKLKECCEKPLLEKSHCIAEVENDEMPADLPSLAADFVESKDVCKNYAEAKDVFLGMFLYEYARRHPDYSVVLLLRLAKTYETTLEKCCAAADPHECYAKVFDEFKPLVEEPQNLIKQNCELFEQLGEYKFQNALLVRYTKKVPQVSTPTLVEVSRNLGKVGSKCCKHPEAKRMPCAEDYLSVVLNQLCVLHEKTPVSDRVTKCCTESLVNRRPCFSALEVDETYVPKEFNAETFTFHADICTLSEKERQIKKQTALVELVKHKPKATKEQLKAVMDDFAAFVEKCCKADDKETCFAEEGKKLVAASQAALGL

On human serum albumin (human), `CN/C(=N/CCSCc1nc[nH]c1C)NC#N` [Cimetidine] gave a LogHSA of −1.876. Further, the LogMA in data set [1] was 1.176.

Regarding `COC(=O)C1=C(C)NC(C)=C(C(=O)OCCN(C)Cc2ccccc2)C1c1cccc([N+](=O)[O-])c1` (stereo not shown) [Nicardipine], the LogHSA at human serum albumin (human) is reported as −5.000.

On human serum albumin (human), `Cc1onc(-c2c(Cl)cccc2Cl)c1C(=O)N[C@@H]1C(=O)N2[C@@H]1SC(C)(C)[C@@H]2C(=O)O` [Dicloxacillin] displayed a LogHSA of −4.064. In addition, the LogMA in data set [1] is 2.079.

`Nc1nc2c(ncn2COCCO)c(=O)[nH]1` [Acyclovir]: in data set [1], the LogMA is reported as −0.097.

`NC(=O)N1c2ccccc2C=Cc2ccccc21` [Carbamazepine] yielded a LogHSA at human serum albumin (human) of −2.539. Besides, the LogMA in data set [1] is 2.519.

Molecule `COCCOC(=O)C1=C(C)NC(C)=C(C(=O)OC(C)C)C1c1cccc([N+](=O)[O-])c1` (stereo not shown) [Nimodipine] gave a LogHSA at human serum albumin (human) of −5.000.

The molecule `Cc1cc(=O)n(-c2ccccc2)n1C` [Antipyrine] came in with a LogMA in data set [1] of 1.146.

On to `CC(C)NCC(O)COc1ccc(CCOCC2CC2)cc1` (stereo not shown) [Betaxolol], for which the LogHSA on human serum albumin (human) is −3.187. This molecule also displayed a LogMA in data set [1] of 2.398.

The molecule `CCN(CC)CCNC(=O)c1ccc(N)cc1` [Procainamide] registered a LogMA in data set [1] of 1.176.

`CC(=O)CC(c1ccccc1)c1c(O)c2ccccc2oc1=O` (stereo not shown) [Warfarin] registered a LogMA in data set [1] of 1.505.

At human serum albumin (human), `CC(C)NCC(O)COc1cccc2[nH]ccc12` (stereo not shown) [Pindolol] yielded a LogHSA of −2.699. In addition, the LogMA in data set [1] came to 2.398.

In turn, `COc1ccc([C@@H]2Sc3ccccc3N(CCN(C)C)C(=O)[C@@H]2OC(C)=O)cc1` [Diltiazem] came in with a LogMA in data set [1] of 2.544.

Turning to `C[C@]12C=CC(=O)C=C1CC[C@@H]1[C@@H]2[C@@H](O)C[C@@]2(C)[C@H]1CC[C@]2(O)C(=O)CO` [Prednisolone], in data set [1], the LogMA came to 2.568.

In turn, `C[C@H]1C[C@@H]2[C@H]([C@@H](O)C[C@@]3(C)[C@H]2CC[C@]3(O)C(=O)CO)[C@@]2(C)C=CC(=O)C=C12` [Methylprednisolone] yielded a LogHSA at human serum albumin (human) of −3.000.

Regarding `CC(=O)Nc1ccc(OCC(O)CNC(C)C)cc1` (stereo not shown) [Practolol], in data set [1], the LogMA is given as 1.301.

`NC[C@H]1CC[C@H](C(=O)O)CC1` [Tranexamic acid] yielded a LogHSA at human serum albumin (human) of −4.000. In data set [1], the LogMA is recorded as −0.301.

Regarding `CN1C(=O)CN=C(c2ccccc2)c2cc(Cl)ccc21` [Diazepam], the LogMA in data set [1] amounted to 3.170.

`COc1cc([C@@H]2c3cc4c(cc3[C@@H](O[C@@H]3O[C@@H]5CO[C@@H](C)O[C@H]5[C@H](O)[C@H]3O)[C@H]3COC(=O)[C@H]23)OCO4)cc(OC)c1O` [Etoposide] gave a LogMA in data set [1] of 2.000.

As to `O=C(O)c1cc(/N=N/c2ccc(S(=O)(=O)Nc3ccccn3)cc2)ccc1O` [Sulfasalacine], in data set [1], the LogMA was found to be 2.748.

The molecule `CCN1CCN(C(=O)N[C@@H](C(=O)N[C@@H]2C(=O)N3C(C(=O)O)=C(CSc4nnnn4C)CS[C@H]23)c2ccc(O)cc2)C(=O)C1=O` [Cefoperazone] showed a LogMA in data set [1] of 1.362.

For `CN(C)CCCN1c2ccccc2Sc2ccccc21` [Promazine], at human serum albumin (setting [2]), the LogHSA was −3.301. This molecule also gave a LogMA in data set [1] of 3.823.

At human serum albumin (human), `CCOC(=O)[C@H](CCc1ccccc1)N[C@@H](C)C(=O)N1CCC[C@H]1C(=O)O` [Enalapril] yielded a LogHSA of −2.959. In data set [1], this molecule returned a LogMA of 1.000.

In the case of `CC(C)NCC(O)COc1ccc(CC(N)=O)cc1` (stereo not shown) [Atenolol], in data set [1], the LogMA was 0.602.

On to Gentamicin, for which the LogMA in data set [1] came to 0.000.

Take `C[C@H](N[C@@H](CCc1ccccc1)C(=O)O)C(=O)N1CCC[C@H]1C(=O)O` [Enalaprilate]: the LogMA in data set [1] is 0.176.

At human serum albumin (setting [2]), `CCOC(=O)C1=C(C)NC(C)=C(C(=O)OC)C1c1cccc(Cl)c1Cl` (stereo not shown) [Felodipine] gave a LogHSA of −5.301.

`O=C(O)c1ccccc1O` [Salicylic acid]: in data set [1], the LogMA is on record as 0.602.

In the case of `CCC1(c2ccccc2)C(=O)NC(=O)NC1=O` [Phenobarbital], the LogHSA on human serum albumin (setting [2]) is −2.854.

In data set [1], `COc1cc2nc(N3CCN(C(=O)c4ccco4)CC3)nc(N)c2cc1OC` [Prazosin] came in with a LogMA of 2.544.

For the molecule `CC(C)=CCN1CCC2(C)c3cc(O)ccc3CC1C2C` (stereo not shown) [Pentazocin], the LogHSA on human serum albumin (setting [2]) is on record as −2.510. The LogMA in data set [1] turned out to be 2.633.

The molecule `CCN(CC)CC(=O)Nc1c(C)cccc1C` [Lidocaine] returned a LogMA in data set [1] of 1.771.

For the molecule `COc1ccc(Cl)cc1C(=O)NCCc1ccc(S(=O)(=O)NC(=O)NC2CCCCC2)cc1` [Glibenclamid], the LogHSA on human serum albumin is on record as −6.221. Besides, the LogMA in data set [1] was 2.301.

`CN1CCN(C2=Nc3cc(Cl)ccc3Nc3ccccc32)CC1` [Clozapine]: the LogHSA on human serum albumin (human) is −3.814.

In the case of `Cc1ccccc1N1C(=O)c2cc(S(N)(=O)=O)c(Cl)cc2NC1C` (stereo not shown) [Metolazone], the LogHSA at human serum albumin (human) is −4.201. This molecule yielded a LogMA in data set [1] of 1.531.

For the molecule `CC1=C(C(=O)O)N2C(=O)[C@@H](NC(=O)[C@H](N)c3ccc(O)cc3)[C@H]2SC1` [Cefadroxil], in data set [1], the LogMA is recorded as 1.079.

In the case of `Nc1nc(O)c2ncn(COC(CO)CO)c2n1` [Ganciclovir], the LogMA in data set [1] was −0.301.

As to `Cc1nnc(NS(=O)(=O)c2ccc(N)cc2)s1` [Sulfamethizole], at human serum albumin (human), the LogHSA was −4.000. Moreover, the LogMA in data set [1] was 1.000.

In the case of `CC1=C(C(=O)O)N2C(=O)[C@@H](NC(=O)[C@H](N)c3ccccc3)[C@H]2SC1` [Cephalexine], the LogMA in data set [1] is reported as 0.778.

`Clc1cccc(Cl)c1N=C1NCCN1` [Clonidine]: the LogHSA on human serum albumin (human) is recorded as −2.463. The molecule further gave a LogMA in data set [1] of 1.602.

Regarding `CN1CCN(c2c(F)cc3c(=O)c(C(=O)O)cn(CCF)c3c2F)CC1` [Fleroxacin], the LogHSA on human serum albumin (human) was −2.523. This molecule also had a LogMA in data set [1] of 1.301.

On human serum albumin (setting [2]), `C[C@H]1O[C@@H](O[C@H]2[C@@H](O)C[C@H](O[C@H]3[C@@H](O)C[C@H](O[C@H]4CC[C@@]5(C)[C@H](CC[C@@H]6[C@@H]5C[C@@H](O)[C@]5(C)[C@@H](C7=CC(=O)OC7)CC[C@]65O)C4)O[C@@H]3C)O[C@@H]2C)C[C@H](O)[C@@H]1O` [Digoxin] returned a LogHSA of −2.284. In addition, the LogMA in data set [1] was determined as 1.477.

Turning to `CC1(C)S[C@@H]2[C@H](NC(=O)[C@H](N)c3ccc(O)cc3)C(=O)N2[C@H]1C(=O)O` [Amoxicilin], the LogHSA on human serum albumin (setting [2]) was −2.301. Further, the LogMA in data set [1] came out at 0.778.

The molecule `CC1(C)S[C@@H]2[C@H](NC(=O)[C@H](N)c3ccccc3)C(=O)N2[C@H]1C(=O)O` [Ampicillin] showed a LogMA in data set [1] of 1.114.

In the case of `O=C(O)c1cn(C2CC2)c2cc(N3CCNCC3)c(F)cc2c1=O` [Ciprofloxacin], the LogMA in data set [1] came to 0.954.

`O=C(CCCN1CCC(O)(c2ccc(Cl)cc2)CC1)c1ccc(F)cc1` [Haloperidol]: the LogHSA at human serum albumin (human) is given as −2.745. The molecule also came in with a LogMA in data set [1] of 3.723.

`Cc1nnc(SCC2=C(C(=O)O)N3C(=O)[C@@H](NC(=O)Cn4cnnn4)[C@H]3SC2)s1` [Cefazolin]: the LogHSA on human serum albumin (setting [2]) is −3.456. The LogMA in data set [1] worked out at 0.903.

As to `CCCCNc1cc(C(=O)O)cc(S(N)(=O)=O)c1Oc1ccccc1` [Bumetanide], on human serum albumin (human), the LogHSA is −5.076. Also, the LogMA in data set [1] came out at 2.279.

`CC(=O)[C@H]1CC[C@H]2[C@@H]3CCC4=CC(=O)CC[C@]4(C)[C@H]3CC[C@]12C` [Progesteron] had a LogHSA on human serum albumin (setting [2]) of −6.189. Further, the LogMA in data set [1] came to 3.843.

Take `Cc1cn([C@H]2C[C@H](N=[N+]=[N-])[C@@H](CO)O2)c(=O)[nH]c1=O` [Zidovudine]: the LogMA in data set [1] is reported as 0.903.

For `CC(=O)Oc1ccccc1C(=O)O` [Acetylsalicylic acid], the LogHSA on human serum albumin (human) is −3.097. The LogMA in data set [1] is given as 0.301.

On to `CC(C(=O)O)c1cccc(C(=O)c2ccccc2)c1` (stereo not shown) [Ketoprofen], for which the LogMA in data set [1] was 1.505.

`CC(=O)Nc1ccc(O)cc1` [Paracetamol]: the LogHSA at human serum albumin (human) is on record as −2.000. In data set [1], this molecule showed a LogMA of 0.778.

For `O=C(O)Cc1ccccc1Nc1c(Cl)cccc1Cl` [Diclofenac], the LogMA in data set [1] worked out at 2.940.

`NCCCC[C@H](N[C@@H](CCc1ccccc1)C(=O)O)C(=O)N1CCC[C@H]1C(=O)O` [Lisinopril] returned a LogMA in data set [1] of 0.845.

`COc1ccc2c(c1)c(CC(=O)O)c(C)n2C(=O)c1ccc(Cl)cc1` [Indomethacin] yielded a LogMA in data set [1] of 2.255.

On to `CC(C)Cc1ccc(C(C)C(=O)O)cc1` (stereo not shown) [Ibuprofen], for which the LogMA in data set [1] is on record as 1.778.

At human serum albumin (setting [2]), `CCOC(=O)C1=C(COCCN)NC(C)=C(C(=O)OC)C1c1ccccc1Cl` (stereo not shown) [Amlodipine] showed a LogHSA of −5.000.

Molecule `CO[C@@]1(NC(=O)CSCC#N)C(=O)N2C(C(=O)O)=C(CSc3nnnn3C)CS[C@@H]21` [Cefmetazole] came in with a LogMA in data set [1] of 1.079.

Take `N=C(N)NC(=O)c1nc(Cl)c(N)nc1N` [Amiloride]: the LogMA in data set [1] came to 0.301.

Molecule `CNC(=C[N+](=O)[O-])NCCSCc1ccc(CN(C)C)o1` [Ranitidine] returned a LogHSA at human serum albumin (human) of −2.155.

Molecule `CN1[C@@H]2C[C@@H](OC(=O)[C@H](CO)c3ccccc3)C[C@H]1[C@@H]1O[C@@H]12` [Scopolamine] showed a LogMA in data set [1] of 1.462.

`O=C1CN=C(c2ccccc2)c2cc(Cl)ccc2N1` [Nordiazepam]: the LogMA in data set [1] was 3.086.

Take `NS(=O)(=O)c1cc(C(=O)O)c(NCc2ccco2)cc1Cl` [Furosemide]: in data set [1], the LogMA is listed as 1.342.

`CC(C)n1c(/C=C/C(O)CC(O)CC(=O)O)c(-c2ccc(F)cc2)c2ccccc21` (stereo not shown) [Fluvastatin] showed a LogHSA on human serum albumin (human) of −5.678.

`C[C@]12CCC(=O)C=C1CC[C@@H]1[C@@H]2[C@@H](O)C[C@@]2(C)[C@H]1CC[C@]2(O)C(=O)CO` [Hydrocortisone] registered a LogMA in data set [1] of 2.716.

For `CO[C@@]1(NC(=O)Cc2cccs2)C(=O)N2C(C(=O)O)=C(COC(N)=O)CS[C@@H]21` [Cefoxitin], the LogMA in data set [1] was found to be 1.000.
